pEC50: −log10 of the molar value.
Each molecule was assayed against T1, Bile acid receptor (Homo sapiens, UniProt Q96RI1) (assay: (§1) Effective concentration against farnesoid X receptor (FXR)).
T1 sequence (Q96RI1 whole entry): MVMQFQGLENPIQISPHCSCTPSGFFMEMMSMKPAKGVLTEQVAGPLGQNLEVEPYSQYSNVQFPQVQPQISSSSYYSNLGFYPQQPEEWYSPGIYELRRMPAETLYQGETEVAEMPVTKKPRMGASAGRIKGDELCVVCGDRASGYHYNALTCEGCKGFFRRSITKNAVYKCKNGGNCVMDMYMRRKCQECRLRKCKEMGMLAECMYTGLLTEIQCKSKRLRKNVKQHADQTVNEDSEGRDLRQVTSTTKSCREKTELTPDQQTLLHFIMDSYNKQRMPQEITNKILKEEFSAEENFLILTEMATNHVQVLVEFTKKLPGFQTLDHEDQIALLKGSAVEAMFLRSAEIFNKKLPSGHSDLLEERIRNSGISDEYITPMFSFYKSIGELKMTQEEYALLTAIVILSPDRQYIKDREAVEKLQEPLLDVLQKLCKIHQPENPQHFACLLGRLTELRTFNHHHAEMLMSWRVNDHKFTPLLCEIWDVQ

| SMILES | pEC50 |
| --- | --- |
| COC(=O)/C=C/c1cccc(N(Cc2ccc(/C=C/C(=O)NC(C)(C)C)cc2)C(=O)C2CCCCC2)c1 | < 6.00 |
| COC(=O)/C=C/c1cccc(N(Cc2ccc(/C=C/c3ccccn3)cc2)C(=O)C(C)C)c1 | 6.51 |
| COC(=O)/C=C/c1cccc(N(Cc2ccc(-c3c(OC)cccc3OC)cc2)C(=O)C2CCCCC2)c1 | 7.11 |
| COC(=O)/C=C/c1cccc(N(Cc2ccc(/C=C/c3cc(C(F)(F)F)cc(C(F)(F)F)c3)cc2)C(=O)C2CCCCC2)c1 | 5.83 |
| COC(=O)/C=C/c1cccc(N(Cc2ccc(/C=C/C(=O)OC(C)(C)C)cc2OC(=O)c2ccccc2)C(=O)C2CCCCC2)c1 | < 6.00 |
| CCOC(=O)/C=C/c1ccc(CN(C(=O)C2CCCCC2)c2cccc(/C=C/C(=O)OC)c2)cc1 | < 6.00 |
| CCOC(=O)COc1cc(/C=C/C(=O)OC(C)(C)C)ccc1CN(C(=O)C1CCCCC1)c1cccc(/C=C/C(=O)OC)c1 | < 6.00 |
| COC(=O)/C=C/c1cccc(N(Cc2ccc(/C=C/C(=O)OC(C)(C)C)cc2OCc2ccccc2)C(=O)C2CCCCC2)c1 | < 6.00 |
| COC(=O)/C=C/c1cccc(N(Cc2ccc(/C=C/c3cccc(F)c3)cc2)C(=O)C2CCCCC2)c1 | 7.07 |
| COC/C=C/c1cccc(N(Cc2ccc(/C=C/C(=O)OC(C)(C)C)cc2)C(=O)C2CCCCC2)c1 | 6.61 |
| COC(=O)/C=C/c1ccc(CN(C(=O)C2CCCCC2)c2cccc(/C=C/C(=O)OC)c2)cc1 | < 6.00 |
| CC(C)(C)OC(=O)/C=C/c1ccc(CN(C(=O)C2CCCCC2)c2cccc(/C=C/C(N)=O)c2)cc1 | < 6.00 |
| COC(=O)/C=C/c1cccc(N(Cc2ccc(/C=C/C(=O)OC(C)(C)C)cc2OC)C(=O)C2CCCCC2)c1 | < 6.00 |
| COC(=O)/C=C/c1cccc(N(Cc2ccc(/C=C/c3ccc(F)cc3)cc2)C(=O)C2CCCCC2)c1 | 6.73 |
| COC(=O)/C=C/c1cccc(N(Cc2ccc(/C=C/c3scnc3C)cc2)C(=O)C2CCCCC2)c1 | 6.64 |
| COC(=O)/C=C/c1cccc(N(Cc2ccc(-c3ccc(N(C)C)cc3)cc2)C(=O)C2CCCCC2)c1 [FEXARAMINE] | 7.60 |

Results, then the molecule that gave them:

| pEC50 | SMILES |
| --- | --- |
| 6.51 | COC(=O)/C=C/c1cccc(N(Cc2ccc(/C=C/c3ccccn3)cc2)C(=O)C2CCCCC2)c1 |
| < 6.00 | COC(=O)/C=C/c1cccc(N(Cc2ccc(/C=C/C(=O)N(C)C)cc2)C(=O)C2CCCCC2)c1 |
| 6.69 | COC(=O)/C=C/c1cccc(N(Cc2ccc(-c3ccc(C)s3)cc2)C(=O)C2CCCCC2)c1 |
| < 6.00 | COC(=O)/C=C/c1cccc(N(Cc2ccc(/C=C/C(=O)OC(C)(C)C)cc2O)C(=O)C2CCCCC2)c1 |
| < 6.00 | CC(C)(C)OC(=O)/C=C/c1ccc(CN(C(=O)C2CCCCC2)c2cccc(/C=C/C(=O)OC(C)(C)C)c2)cc1 |
| < 6.00 | COC(=O)/C=C/c1cccc(N(Cc2ccc(/C=C/C(=O)OC(C)(C)C)cc2OC(C)=O)C(=O)C2CCCCC2)c1 |
| 6.66 | CCOC/C=C/c1cccc(N(Cc2ccc(/C=C/C(=O)OC(C)(C)C)cc2)C(=O)C2CCCCC2)c1 |
| 7.19 | COC(=O)/C=C/c1cccc(N(Cc2ccc(/C=C/c3ccccc3F)cc2)C(=O)C2CCCCC2)c1 |
| < 6.00 | COC(=O)/C=C/c1cccc(N(Cc2ccc(/C=C/C(=O)O)cc2)C(=O)C2CCCCC2)c1 |
| 6.78 | COC(=O)/C=C/c1cccc(N(Cc2ccc(/C=C/c3cccc(Cl)c3)cc2)C(=O)C2CCCCC2)c1 |
| 6.82 | COC(=O)/C=C/c1cccc(N(Cc2ccc(/C=C/c3c(Cl)cccc3Cl)cc2)C(=O)C2CCCCC2)c1 |
| 6.63 | COC/C=C/c1ccc(CN(C(=O)C2CCCCC2)c2cccc(/C=C/C(=O)OC)c2)cc1 |
| < 6.00 | COC(=O)/C=C/c1cccc(N(Cc2ccc(/C=C/C(=O)OC(C)(C)C)cc2OS(C)(=O)=O)C(=O)C2CCCCC2)c1 |
| 7.42 | COC(=O)/C=C/c1cccc(N(Cc2ccc(-c3ccc4c(c3)OCO4)cc2)C(=O)C2CCCCC2)c1 |
| < 6.00 | COC(=O)/C=C/c1cccc(N(Cc2ccc(/C=C/C(=O)OCc3ccccc3)cc2)C(=O)C2CCCCC2)c1 |
| < 6.00 | CC(C)(C)OC(=O)/C=C/c1cccc(N(Cc2ccc(CCC(=O)OC(C)(C)C)cc2)C(=O)C2CCCCC2)c1 |
| 6.68 | COC(=O)/C=C/c1cccc(N(Cc2ccc(/C=C/c3ccc(OC)cc3)cc2)C(=O)C2CCCCC2)c1 |
| 6.64 | COC(=O)/C=C/c1cccc(N(Cc2ccc(/C=C/c3scnc3C)cc2)C(=O)C(C)C)c1 |

Each molecule was assayed against T1, Bile acid receptor (assay: as §1).

| SMILES | pEC50 |
| --- | --- |
| COC(=O)/C=C/c1cccc(N(Cc2ccc(/C=C/c3ccccc3F)cc2)C(=O)C(C)C)c1 | 7.15 |
| COC(=O)/C=C/c1cccc(N(Cc2ccc(/C=C/c3cccc(F)c3)cc2)C(=O)NC(C)C)c1 | 6.33 |
| COC(=O)/C=C/c1cccc(N(Cc2ccc(-c3cccc(OC(F)(F)F)c3)cc2)C(=O)C2CCCCC2)c1 | 6.38 |
| COC(=O)/C=C/c1cccc(N(Cc2ccc(/C=C/c3cccc(Cl)c3)cc2)C(=O)C(C)C)c1 | 6.79 |
| COC(=O)/C=C/c1cccc(N(Cc2ccc(-c3cc(Cl)ccc3OC)cc2)C(=O)C2CCCCC2)c1 | 6.63 |
| COC(=O)/C=C/c1cccc(N(Cc2cc(OC)cc(OC)c2)C(=O)C2CCCCC2)c1 | 6.22 |
| COC(=O)/C=C/c1cccc(N(Cc2ccc(/C=C/c3ccc(F)cc3)cc2)C(=O)C2CCCCC2)c1 | 6.73 |
| COC(=O)/C=C/c1cccc(N(Cc2ccc(/C=C/c3ccccc3)cc2)C(=O)C(C)C)c1 | 7.19 |

More lines, now with the values ahead:

| pEC50 | SMILES |
| --- | --- |
| 6.58 | COC(=O)/C=C/c1cccc(N(Cc2ccc(-c3ccc(OC(F)(F)F)cc3)cc2)C(=O)C2CCCCC2)c1 |
| 6.00 | COC(=O)/C=C/c1cccc(N(Cc2ccc(/C=C/C(=O)OC(C)(C)C)cc2O)C(=O)C2CCCCC2)c1 |
| 6.00 | CC(C)(C)OC(=O)/C=C/c1ccc(CN(C(=O)C2CCCCC2)c2cccc(/C=C/C(=O)OC(C)(C)C)c2)cc1 |
| 7.72 | COC(=O)/C=C/c1cccc(N(Cc2ccc(-c3ccc4c(c3)OCO4)cc2)C(=O)C(C)C)c1 |
| 6.00 | COC(=O)/C=C/c1cccc(N(Cc2ccc(/C=C/C(=O)O)cc2)C(=O)C2CCCCC2)c1 |
| 6.78 | COC(=O)/C=C/c1cccc(N(Cc2ccc(/C=C/c3cccc(Cl)c3)cc2)C(=O)C2CCCCC2)c1 |
| 5.85 | COC(=O)/C=C/c1cccc(N(Cc2ccc(-c3cccc(Cl)c3)cc2)C(=O)NC(C)C)c1 |
| 6.82 | COC(=O)/C=C/c1cccc(N(Cc2ccc(/C=C/c3c(Cl)cccc3Cl)cc2)C(=O)C2CCCCC2)c1 |
| 6.89 | COC(=O)/C=C/c1cccc(N(Cc2ccc(-c3ccc(F)c(Cl)c3)cc2)C(=O)C(C)C)c1 |
| 5.88 | COC(=O)/C=C/c1cccc(N(Cc2ccc(-c3cccc(C)c3)cc2)C(=O)NC(C)C)c1 |
| 7.14 | COC(=O)/C=C/c1cccc(N(Cc2ccc(-c3cccc(OC)c3)cc2)C(=O)C(C)C)c1 |
| 7.11 | COC(=O)/C=C/c1cccc(N(Cc2ccc(-c3cccc(OC)c3)cc2)C(=O)C2CCCCC2)c1 |
| 6.25 | COC(=O)/C=C/c1cccc(N(Cc2ccc(-c3c(OC)cccc3OC)cc2)C(=O)NC(C)C)c1 |
